The values that follow come from patent publication US4652586A, “Selective beta-2 adrenergic antagonists for the treatment of glaucoma” (priority 1980, dated 1987).

pKd, pKi: −log10 of the molar value. “Also recorded” adds a separate entry of the source. Counter-ions that a name gives are not always drawn. Like-named read-outs stand apart in the source and are kept apart here.

One experiment deals with heart adenylate cyclase. The settings on record: Table I, data from Minneman et al, cited from earlier work; for pKi: antagonists, read-out: Adenylate Cyclase Ki, Heart (G).
Experiment [1] has as its target rabbit heart isoproterenol-stimulated adenylate cyclase. Description: rabbit heart isoproterenol-stimulated adenylate cyclase. Format: biochemical.
For a further experiment, the system named is rabbit eyes. Put plainly: intraocular pressure in normal rabbit eyes after topical application. The settings on record: for IOP in the contralateral eye: 0.5% topical to ipsilateral eye, presumably systemic absorption; for IOP in ipsilateral eyes compared to predrug readings: two 50 microliter doses, normal rabbit, FIG. 2.
In experiment [2] the target is T1, rabbit ciliary process adenylate cyclase (beta2-adrenergic receptors) (Oryctolagus cuniculus, UniProt G1TAV7).
T1 construct: Homogenates or washed particulate preparations (10 mg/ml) in 6 mM Tris-maleate, pH 7.4, are prepared from the various tissues to be studied; from tissue; host or cells: rabbit ciliary process
T1 sequence (G1TAV7 1-437): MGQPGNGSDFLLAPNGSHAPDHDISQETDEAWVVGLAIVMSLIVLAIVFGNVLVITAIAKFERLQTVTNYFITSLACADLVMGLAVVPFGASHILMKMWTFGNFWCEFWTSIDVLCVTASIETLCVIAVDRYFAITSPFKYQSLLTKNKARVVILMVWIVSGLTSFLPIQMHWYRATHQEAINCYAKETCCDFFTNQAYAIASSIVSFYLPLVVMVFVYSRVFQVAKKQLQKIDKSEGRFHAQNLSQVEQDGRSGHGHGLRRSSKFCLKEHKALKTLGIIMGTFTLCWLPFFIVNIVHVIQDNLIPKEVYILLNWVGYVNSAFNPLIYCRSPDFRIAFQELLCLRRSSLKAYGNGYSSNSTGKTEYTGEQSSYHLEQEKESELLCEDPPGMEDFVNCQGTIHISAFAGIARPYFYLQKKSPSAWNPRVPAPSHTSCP
Description: rabbit ciliary process isoproterenol-stimulated adenylate cyclase. Format: biochemical. The settings on record: Table III; rabbit ciliary process, isoproterenol-stimulated.

For the next experiment, the system named is iris adenylate cyclase. Put plainly: iris adenylate cyclase stimulation. Format: biochemical. From the text: (§1) The discovery that the ciliary process of the mammalian eye contains β2 -adrenergic receptors is based on the technique of measuring adenylate cyclase, an enzyme which synthesizes cyclic AMP from ATP. It has been established that receptor binding of beta adrenergic agonists is associated with a concomitant activation of adenylate cyclase. (Robison, G. A., et al, Cyclic AMP, Academic Press, New York, 1971, and Wolfe, B. B., et al, Annual Reviews of Pharmacology and Toxicology, 17:575-604 (1977)). […] Beta adrenergic sensitive adenylate cyclase activity was thus identified and characterized in the ocular tissues of several mammalian species such as rabbits, cats, dogs, monkeys and humans. After isolation of the ciliary process, adenylate cyclase activity was measured, and its activation by agonists or inhibition by antagonists was measured. […].
(§2) For ciliary body, maximal stimulation was 15% of the stimulation seen in the ciliary process, and for iris, maximal stimulation was 22% for that seen in the ciliary process. […];

Experiment [3] concerns ciliary body adenylate cyclase. Put plainly: ciliary body adenylate cyclase stimulation. The experiment is classed as biochemical.
Description: as §1, §2

Experiment [4] relates to rabbit ciliary process adenylate cyclase (beta2-adrenergic receptors). Put plainly: rabbit ciliary process isoproterenol-stimulated adenylate cyclase. The experiment is classed as biochemical. The note with it: for Ki heart / Ki Ciliary Process = beta2/beta1 potency ratio: Table III, rabbit heart vs rabbit ciliary process, ±20%.
The target in experiment [5] is beta1-adrenergic receptor present in mammalian heart. The note with it: Table I; data from Minneman et al; read-out: Kd for IHYP Binding, Heart (E); cited from earlier work.
The next experiment concerns adult female cats. The settings on record: Colasanti and Trotter 1979; cited from earlier work.
[6] abbreviates: Table III, rabbit heart, isoproterenol-stimulated, read-out: Adenylate Cyclase Ki, Heart.

On to `CNC[C@H](O)c1ccc(O)c(O)c1` [Epinephrine], for which, at heart adenylate cyclase (agonists, NE = no effect as agonist), the “Adenylate Cyclase Ka, Heart (G)” value was 1.5 µM.

A word on the pKi: it is the negative decadic logarithm of the Ki, by convention in mol/L. Turning to `CC(C)(C)NC[C@H](O)COc1nsnc1N1CCOCC1` [Timolol, timolol], the figures for the pKi (at heart adenylate cyclase; in experiment [1] (setting [6]); in experiment [2]) were 7.80, 7.80 and 8.35, respectively. The “IOP in the contralateral eye” value in the experiment on rabbit eyes was “significant decrease in IOP in the contralateral eye”. Besides, in the experiment on rabbit eyes (0.5% topical), the “IOP in ipsilateral eyes compared to predrug readings” value is “significant decrease in IOP in ipsilateral eyes at 2 and 3 hours after application; also recorded: significant decrease at 1 hour”.

Regarding `CC(C)NCC(O)c1ccc(O)c(O)c1` (stereo not drawn) [Isoproterenol, isoproterenol], the “maximal stimulation, iris” value with iris adenylate cyclase is reported as 22 % for that seen in the ciliary process. Moreover, in [3], the “maximal stimulation, ciliary body” value is on record as 15 % of the stimulation seen in the ciliary process.

As for `COc1ccc(OC)c(C(O)C(C)NC(C)(C)C)c1` (stereo not drawn) [Butoxamine], the pKi on heart adenylate cyclase is 5.02; in [1] (setting [6]) it was 5.02; in experiment [2] it was 5.85. For the same molecule, the “β2/β1 potency ratio (Ki heart/Ki ciliary process)” value in experiment [4] (Table II, from Table I, accurate to ±20%) was 1.50. For the same molecule, the “Ki heart / Ki Ciliary Process = beta2/beta1 potency ratio” value in experiment [4] turned out to be 6.8.

As to `CC(=O)Nc1ccc(OCC(O)CNC(C)C)cc1` (stereo not drawn) [Practolol, practolol], the negative logarithm of the Ki (pKi) was 5.17 at heart adenylate cyclase, 5.17 in experiment [1] (setting [6]) and 4.68 in experiment [2].

In experiment [2], `CC(C)NCC(O)COc1ccc(CC(N)=O)cc1` (stereo not drawn) [Atenolol, atenolol] had a pKi of 4.96.

For the molecule `CC(C)(C)NCC(O)CON=C1c2ccccc2-c2ccccc21` (stereo not drawn) [IPS 339, (t-butyl-amino 3-ol-2-propyl)oximino-9 fluorene, hydrochloride], the pKi in [1] (Table I, footnote ++ present invention, read-out: Adenylate Cyclase Ki, Heart (G)) is 6.08; in [1] (setting [6]) it was 6.08. Besides, the “IOP in the contralateral eye” value in the experiment with rabbit eyes is listed as “significant decrease in IOP in the contralateral eye”. The “IOP in ipsilateral eyes compared to predrug readings” value in the experiment on rabbit eyes (0.5% topical) was “significant decrease in IOP in ipsilateral eyes at 2 and 3 hours after application”. In addition, the “extent of IOP decrease, IPS 339 compared with timolol” value with rabbit eyes (0.5% topical, at 3 hours) is listed as “significantly more than that caused by timolol”. Also, the “magnitude of contralateral IOP effect” value with rabbit eyes (0.5% topical, compared with timolol) is “somewhat less for IPS 339 than for timolol”.

The pKd is −log10 of the Kd, conventionally taken in molar units. With `Cc1ccc(C(O)C(C)NC(C)C)cc1` (stereo not drawn) [H35/25, (1(4'-methyl phenyl)-2-isopropylaminopropanol)], the results for the pKi (on heart adenylate cyclase; in experiment [1] (setting [6]); in experiment [2]) were 5.15, 5.15 and 6.10, respectively. In [5], the pKd was 5.71. Further, the “Ki heart / Ki Ciliary Process = beta2/beta1 potency ratio” value in experiment [4] was found to be 8.8. The “β2/β1 potency ratio (Ki heart/Ki ciliary process)” value in experiment [4] (rabbit, heart vs ciliary process) turned out to be 3.1. Further, the “maximal reduction of intraocular tension” value with adult female cats was “about the same maximal reduction as timolol”.
